Results on 36 compounds are retold here after ChEMBL document CHEMBL4483862, “Open-source discovery of chemical leads for next-generation chemoprotective antimalarials” (2018).

This test has as its system Plasmodium berghei. Nature of the test: Luciferase/luciferin-expressing antifolate-resistant parasites were used to infect a culture of HepG2 cells that were pre-incubated with compounds. Infected hepatocytes emit light due to the luciferase reaction. Assay results are presented as the percent inhibition of light emission compared to control. […]. Type of test: functional. The conditions noted are these: sporozoite; for IC90: read-out: LUCIFERASE INFECTION ASSAY - IC90.

As a reminder, the IC50 is the midpoint of a concentration-inhibition curve. What is called IC90 is the concentration at which the effect reaches the 90% level. On to `COc1ccc(C2CC(=O)c3cnn(-c4nc(C)cc(C)n4)c3C2)cc1` (configuration not stated), for which the IC90 was found to be 4.91 µM. In addition, the IC50 (PBLUC_HILL_SLOPE 4.21, PBLUC_R_SQUARED 0.368, read-out: LUCIFERASE INFECTION ASSAY - IC50) turned out to be 2.91 µM.
`COc1cc(OC)nc(Nc2nc(C(N)Cc3ccccc3)cs2)n1` (configuration not stated): the IC90 amounted to 7.54 µM. For the same compound, where the note is “PBLUC_HILL_SLOPE 4.21, PBLUC_R_SQUARED 0.584, read-out: LUCIFERASE INFECTION ASSAY - IC50”, the IC50 was determined as 4.47 µM.
For the compound `Cc1ccc(C)c(S(=O)(=O)N(CC(=O)N2CCN(C(=O)c3ccco3)CC2)c2cccc(C(F)(F)F)c2)c1`, the IC90 stood at 8.16 µM. Moreover, the IC50 (PBLUC_HILL_SLOPE 4.06, PBLUC_R_SQUARED 0.673, read-out: LUCIFERASE INFECTION ASSAY - IC50) came to 4.75 µM.
Take `Cc1nc(SCC(=O)Nc2ccccc2C#N)c2c(-c3cccs3)csc2n1`: the concentration for an effect of 90% (IC90) was over 10 µM. Besides, the IC50 (PBLUC_HILL_SLOPE 4.22, PBLUC_R_SQUARED 0.391, read-out: LUCIFERASE INFECTION ASSAY - IC50) was found to be 6.05 µM.
For the compound `NS(=O)(=O)c1ccc(CCNC(=O)COc2ccccc2Cc2ccccc2)cc1`, the IC90 was determined as 9.31 µM. For the same compound, the IC50 (PBLUC_HILL_SLOPE 4.18, PBLUC_R_SQUARED 0.0848, read-out: LUCIFERASE INFECTION ASSAY - IC50) was 5.51 µM.
In the case of `CCOC(=O)c1c(C)oc2nc(CN(C)Cc3ccc(OCC)cc3)nc(N)c12`, the IC90 worked out at 8.75 µM. Moreover, the half-maximal inhibitory concentration (IC50) (PBLUC_HILL_SLOPE 4.1, PBLUC_R_SQUARED 0.674, read-out: LUCIFERASE INFECTION ASSAY - IC50) came to 5.12 µM.
For the compound `Cc1nc2cc(NC(=O)CCCSc3nc4ccccc4[nH]3)ccc2o1`, the IC90 is over 10 µM. Besides, under “PBLUC_HILL_SLOPE 4.06, PBLUC_R_SQUARED 0.0694, read-out: LUCIFERASE INFECTION ASSAY - IC50”, the IC50 is 9.96 µM.
With `Cn1/c(=N/NC=C2CCC/C(=C/c3ccccc3)C2=O)sc2ccccc21`, the IC90 is over 10 µM. Moreover, the IC50 (PBLUC_HILL_SLOPE 4.26, PBLUC_R_SQUARED 0.398, read-out: LUCIFERASE INFECTION ASSAY - IC50) was 8.32 µM.
For the compound `COc1ccc(-c2csc3ncnc(NCC4(N5CCOCC5)CCCCC4)c23)cc1`, the concentration for an effect of 90% (IC90) came to 9.48 µM. Where the note is “PBLUC_HILL_SLOPE 4.26, PBLUC_R_SQUARED 0.161, read-out: LUCIFERASE INFECTION ASSAY - IC50”, the IC50 was determined as 5.66 µM.
In the case of `FC(F)(F)Oc1cccc(-c2cnc3ccc(-c4cccs4)nn23)c1`, the IC90 is 7.53 µM. Moreover, where the note is “PBLUC_HILL_SLOPE 4.13, PBLUC_R_SQUARED 0.323, read-out: LUCIFERASE INFECTION ASSAY - IC50”, the IC50 was determined as 4.43 µM.
As to `CC(C)(C)c1ccccc1NC(=O)Nc1nc(C(N)Cc2ccc(Cl)cc2)cs1` (configuration not stated), the IC90 was found to be 5.51 µM. Besides, the IC50 (PBLUC_HILL_SLOPE 4.24, PBLUC_R_SQUARED 0.754, read-out: LUCIFERASE INFECTION ASSAY - IC50) was determined as 3.28 µM.
With `CC(C)Cn1c(-c2ccccc2F)nc2c(c(=O)c3ccccc3n2C)c1=O`, the IC90 stood at 7.64 µM. The concentration for half-maximal inhibition (IC50) (PBLUC_HILL_SLOPE 4.02, PBLUC_R_SQUARED 0.715, read-out: LUCIFERASE INFECTION ASSAY - IC50) was 4.42 µM.
Turning to `O=C(c1cn2ccccc2n1)N1CCN(C(c2ccccc2)c2ccccc2)CC1`, the IC90 is over 10 µM. Also, the IC50 (PBLUC_HILL_SLOPE 4.26, PBLUC_R_SQUARED 0.0991, read-out: LUCIFERASE INFECTION ASSAY - IC50) was determined as 6.51 µM.
For `FC(F)(F)Oc1cccc(-c2cnc3ccc(-c4cncnc4)nn23)c1`, the IC90 worked out at 3.91 µM. The half-inhibitory concentration (IC50) (PBLUC_HILL_SLOPE 4.12, PBLUC_R_SQUARED 0.479, read-out: LUCIFERASE INFECTION ASSAY - IC50) came out at 2.29 µM.
Turning to `N#C/C(=C\Nc1cc(C(F)(F)F)cc(C(F)(F)F)c1)S(=O)(=O)c1ccc(OC(F)(F)F)cc1`, the concentration for an effect of 90% (IC90) is over 6.54 µM. Further, where the note is “PBLUC_HILL_SLOPE 4.15, PBLUC_R_SQUARED 0.029, read-out: LUCIFERASE INFECTION ASSAY - IC50”, the IC50 was over 6.54 µM.
In the case of `NC(=O)c1ccc(Nc2nc(-c3cccnc3)nc3ccccc23)cc1`, the IC90 was over 10 µM. Also, the IC50 (PBLUC_HILL_SLOPE 4.21, PBLUC_R_SQUARED 0.0982, read-out: LUCIFERASE INFECTION ASSAY - IC50) was over 10 µM.
For the compound `CC(OC(=O)c1cccc(-n2cccc2)c1)C(=O)N1CCCC1` (configuration not stated), the IC90 was determined as 8.03 µM. Also, where the note is “PBLUC_HILL_SLOPE 4.03, PBLUC_R_SQUARED 0.34, read-out: LUCIFERASE INFECTION ASSAY - IC50”, the IC50 came out at 4.65 µM.
In the case of `Cc1cc(NCc2ccccn2)n2ncc(-c3ccccc3Cl)c2n1`, the IC90 was over 9.43 µM. Under “PBLUC_HILL_SLOPE 4.03, PBLUC_R_SQUARED 0.181, read-out: LUCIFERASE INFECTION ASSAY - IC50”, the IC50 turned out to be 5.66 µM.
With `FC(F)(F)Oc1ccc(Nc2nnc(Sc3ncnc4ccsc34)s2)cc1`, the IC90 was over 10 µM. Further, for the setting “PBLUC_HILL_SLOPE 4.22, PBLUC_R_SQUARED 0.601, read-out: LUCIFERASE INFECTION ASSAY - IC50”, the IC50 came out at 6.4 µM.
As for `COc1ccccc1/C=C(/C(=O)OCc1cc(=O)n2cc(C)ccc2n1)c1ccccc1`, the 90% effect concentration (IC90) was over 10 µM. Also, the IC50 (PBLUC_HILL_SLOPE 4.19, PBLUC_R_SQUARED 0.0967, read-out: LUCIFERASE INFECTION ASSAY - IC50) turned out to be 6.55 µM.
As to `O=C(Nc1ccc(F)cc1)C(Sc1nnc(-c2cccs2)[nH]1)c1ccccc1` (configuration not stated), the IC90 is over 10 µM. Further, the half-inhibitory concentration (IC50) (PBLUC_HILL_SLOPE 4.17, PBLUC_R_SQUARED 0.509, read-out: LUCIFERASE INFECTION ASSAY - IC50) is 6.11 µM.
`O=C(c1nn(-c2ccccc2)c(=O)c2ccccc12)N(CCCN1CCOCC1)Cc1cccs1`: the concentration for an effect of 90% (IC90) was over 10 µM. Also, where the note is “PBLUC_HILL_SLOPE 4.06, PBLUC_R_SQUARED 0.124, read-out: LUCIFERASE INFECTION ASSAY - IC50”, the IC50 came to 8.65 µM.
As for `COc1ccc(-n2nc(C)c3c(=O)c(Cl)c(C)[nH]c32)cc1`, the IC90 is over 10.9 µM. For the same compound, the IC50 (PBLUC_HILL_SLOPE 4.15, PBLUC_R_SQUARED 0.0529, read-out: LUCIFERASE INFECTION ASSAY - IC50) was determined as 10.4 µM.
Take `O=C(NC1CC1)c1ccc(-c2cnc3cnc(-c4ccc(CNc5ccccc5)cc4)cn23)cc1`: the IC90 is over 7.18 µM. Besides, for the setting “PBLUC_HILL_SLOPE 4.2, PBLUC_R_SQUARED 0.624, read-out: LUCIFERASE INFECTION ASSAY - IC50”, the 50% inhibitory concentration (IC50) came out at 4.59 µM.
For the compound `COc1ccc(-c2cnc3cnc(-c4ccc(N5CCN(C)CC5)cc4)cn23)cc1`, the IC90 was over 8.26 µM. The IC50 (PBLUC_HILL_SLOPE 4.21, PBLUC_R_SQUARED 0.0945, read-out: LUCIFERASE INFECTION ASSAY - IC50) is 6.36 µM.
As for `N#Cc1cccc(Nc2nc(C(F)(F)F)nc3ccccc23)c1`, the IC90 is over 10 µM. Further, the IC50 (PBLUC_HILL_SLOPE 4.2, PBLUC_R_SQUARED 0.258, read-out: LUCIFERASE INFECTION ASSAY - IC50) amounted to 8.32 µM.
For the compound `Cc1ccccc1-c1nc2oc3ccccc3c(=O)c2c(=O)n1Cc1ccccc1`, the IC90 came out at 5.78 µM. Further, under “PBLUC_HILL_SLOPE 4.15, PBLUC_R_SQUARED 0.52, read-out: LUCIFERASE INFECTION ASSAY - IC50”, the IC50 was 3.4 µM.
Regarding `CC(c1ccccc1)n1c(SCCSc2cc(Cl)ccc2Cl)nc2ccccc2c1=O` (configuration not stated), the IC90 was over 10 µM. Also, the IC50 (PBLUC_HILL_SLOPE 4.25, PBLUC_R_SQUARED 0.473, read-out: LUCIFERASE INFECTION ASSAY - IC50) was 6.21 µM.
`Cn1ccnc1Sc1ncnc2ccsc12`: the IC90 turned out to be 9.45 µM. In addition, the IC50 (PBLUC_HILL_SLOPE 4.08, PBLUC_R_SQUARED 0.748, read-out: LUCIFERASE INFECTION ASSAY - IC50) was 5.51 µM.
Regarding `COc1ccc(/C=C2\CCCC3C2=NN(C(=O)Cn2cc(C(F)(F)F)ccc2=O)C3c2ccc(OC)cc2)cc1` (configuration not stated), the 90% effect concentration (IC90) came out at 8.1 µM. Further, the 50% inhibitory concentration (IC50) (PBLUC_HILL_SLOPE 4.26, PBLUC_R_SQUARED 0.126, read-out: LUCIFERASE INFECTION ASSAY - IC50) turned out to be 4.84 µM.
For `CCn1c(NC(=O)Cc2ccc(C)c(OC)c2)nc2ccccc21`, the concentration for an effect of 90% (IC90) came to 8.25 µM. Besides, under “PBLUC_HILL_SLOPE 4.04, PBLUC_R_SQUARED 0.646, read-out: LUCIFERASE INFECTION ASSAY - IC50”, the IC50 came out at 4.79 µM.
On to `COCOc1ccc(-c2cc(-c3ccc(S(C)(=O)=O)cc3)cnc2N)cc1`, for which the IC90 came out at 1.3 µM. For the setting “PBLUC_HILL_SLOPE 4.16, PBLUC_R_SQUARED 0.931, read-out: LUCIFERASE INFECTION ASSAY - IC50”, the half-maximal inhibitory concentration (IC50) was found to be 0.765 µM.
As for `CCOc1ccc(OCC)c(NC(=O)/C=C/c2ccc(OCc3cn4ccccc4n3)cc2)c1`, the 90% effect concentration (IC90) is over 10 µM. For the same compound, the IC50 (PBLUC_HILL_SLOPE 4.17, PBLUC_R_SQUARED 0.3, read-out: LUCIFERASE INFECTION ASSAY - IC50) was determined as 8.87 µM.
For `O=C(NC1CC1)c1ccc(CN(C2CC2)S(=O)(=O)c2cccs2)cc1`, the 90% effect concentration (IC90) was over 10 µM. Also, where the note is “PBLUC_HILL_SLOPE 4.12, PBLUC_R_SQUARED 0.383, read-out: LUCIFERASE INFECTION ASSAY - IC50”, the IC50 stood at 7.92 µM.
Consider `O=C1C(=O)N(Cc2ccncc2)c2ccccc21`, for which the IC90 is over 13.9 µM. For the same compound, the half-inhibitory concentration (IC50) (PBLUC_HILL_SLOPE 4.07, PBLUC_R_SQUARED 0.778, read-out: LUCIFERASE INFECTION ASSAY - IC50) was determined as 8.1 µM.
On to `O=C(Cc1ccc(Cl)cc1)N1CCc2nc(NCc3cccc(Oc4ccccc4)c3)ncc2C1`, for which the IC90 is over 6.8 µM. Besides, under “PBLUC_HILL_SLOPE 4.18, PBLUC_R_SQUARED 0.529, read-out: LUCIFERASE INFECTION ASSAY - IC50”, the IC50 was found to be 4.95 µM.
